# Measured values reported in PubChem BioAssay (NCI).
#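 Each compound was tested at five concentrations against cells in 96-well plates for 48 hours. At the GI50, growth is halved. Definition used: TGI = concentration required for complete inhibition of growth.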
# Assays:
# Experiment in all cases: NCI-60 cell line screen, 48 h
# [1] = system: CAKI-1 renal
# [2] = system: SW-620 colon
# [3] = system: SR leukemia
# [4] = system: OVCAR-8 ovarian
# [5] = system: ACHN renal
# [6] = system: HOP-92 NSCLC
# [7] = system: NCI/ADR-RES ovarian
# [8] = system: LOX IMVI melanoma
# [9] = system: SF-539 CNS
# [10] = system: OVCAR-5 ovarian
# [11] = system: HCT-15 colon
# [12] = system: HL-60(TB) leukemia
# [13] = system: SF-268 CNS
# [14] = system: HCC-2998 colon
# [15] = system: NCI-H226 lung
# [16] = system: 786-0 renal
# [17] = system: SNB-19 CNS
# [18] = system: HOP-62 NSCLC
# [19] = system: MOLT-4 leukemia
# [20] = system: SK-MEL-5 melanoma
# [21] = system: UACC-62 melanoma
# [22] = system: OVCAR-4 ovarian
# [23] = system: EKVX NSCLC
# [24] = system: HCT-116 colon
# [25] = system: SF-295 CNS
# [26] = system: BT-549 breast
# [27] = system: DU-145 prostate
# [28] = system: RPMI-8226 leukemia
# [29] = system: MCF7 breast
# [30] = system: NCI-H460 lung
# [31] = system: UO-31 renal
# [32] = system: NCI-H23 lung
# [33] = system: PC-3 prostate
# [34] = system: A549 NSCLC
# [35] = system: OVCAR-3 ovarian
# [36] = system: HS 578T breast
# [37] = system: CCRF-CEM leukemia
# [38] = system: NCI-H522 lung
# [39] = system: TK-10 renal
# [40] = system: MDA-MB-435
# [41] = system: SK-MEL-2 melanoma
# [42] = system: IGROV1 ovarian
# [43] = system: U251 CNS
# [44] = system: SK-OV-3 ovarian
# [45] = system: SNB-75 CNS
# [46] = system: MALME-3M melanoma
# [47] = system: MDA-MB-231 breast
# [48] = system: RXF 393 renal
# [49] = system: SN12C renal
# [50] = system: KM12 colon
# [51] = system: UACC-257 melanoma
# [52] = system: M14 melanoma
# [53] = system: T-47D breast
# [54] = system: A498 renal
# [55] = system: K-562 leukemia
# [56] = system: HT29 colon
# [57] = system: SK-MEL-28 melanoma
# [58] = system: COLO 205 colon
smiles,measurement,setting,value
CCCCCCCCCC(=O)Oc1ccc(/C(=C(/C)c2ccccc2)c2ccc(OCCN3CCCC3)cc2)cc1,GI50,[1],6.77 µM
same,TGI,[1],13.9 µM
same,GI50,[2],8.57 µM
same,TGI,[2],15.6 µM
same,GI50,[3],9.08 µM
same,TGI,[3],19 µM
same,GI50,[4],9.78 µM
same,TGI,[4],20.8 µM
same,GI50,[5],8.16 µM
same,TGI,[5],15.5 µM
same,GI50,[6],7.01 µM
same,TGI,[6],15.4 µM
same,GI50,[7],8.03 µM
same,TGI,[7],16.9 µM
same,GI50,[8],8.02 µM
same,TGI,[8],14.8 µM
same,GI50,[9],8.7 µM
same,TGI,[9],16.9 µM
same,GI50,[10],8.56 µM
same,TGI,[10],16.5 µM
same,GI50,[11],6.69 µM
same,TGI,[11],13.1 µM
same,GI50,[12],9.24 µM
same,TGI,[12],18.7 µM
same,GI50,[13],8.16 µM
same,TGI,[13],17.2 µM
same,GI50,[14],8.66 µM
same,TGI,[14],17.2 µM
same,GI50,[15],9.42 µM
same,TGI,[15],18.5 µM
same,GI50,[16],8.77 µM
same,TGI,[16],16.8 µM
same,GI50,[17],9.04 µM
same,TGI,[17],17.7 µM
same,GI50,[18],8.75 µM
same,TGI,[18],17.3 µM
same,GI50,[19],8.61 µM
same,TGI,[19],20.3 µM
same,GI50,[20],8.13 µM
same,TGI,[20],14.9 µM
same,GI50,[21],9.18 µM
same,TGI,[21],16.8 µM
same,GI50,[22],7.39 µM
same,TGI,[22],14.9 µM
same,GI50,[23],6.92 µM
same,TGI,[23],13.6 µM
same,GI50,[24],8.01 µM
same,TGI,[24],15.7 µM
same,GI50,[25],7.93 µM
same,TGI,[25],15.1 µM
same,GI50,[26],8.22 µM
same,TGI,[26],16.8 µM
same,GI50,[27],8 µM
same,TGI,[27],14.8 µM
same,GI50,[28],9.13 µM
same,TGI,[28],21 µM
same,GI50,[29],0.005 µM
same,TGI,[29],10.3 µM
same,GI50,[30],8.46 µM
same,TGI,[30],15.9 µM
same,GI50,[31],6.72 µM
same,TGI,[31],14.2 µM
same,GI50,[32],7.74 µM
same,TGI,[32],16.1 µM
same,GI50,[33],8.28 µM
same,TGI,[33],15.7 µM
same,GI50,[34],9.35 µM
same,TGI,[34],17.7 µM
same,GI50,[35],8.18 µM
same,TGI,[35],16.1 µM
same,GI50,[36],9.55 µM
same,TGI,[36],32.2 µM
same,GI50,[37],9.51 µM
same,TGI,[37],22.3 µM
same,GI50,[38],9.36 µM
same,TGI,[38],18.4 µM
same,GI50,[39],8.86 µM
same,TGI,[39],16.7 µM
same,GI50,[40],7.47 µM
same,TGI,[40],14.1 µM
same,GI50,[41],9.49 µM
same,TGI,[41],18.1 µM
same,GI50,[42],8.67 µM
same,TGI,[42],19.5 µM
same,GI50,[43],8.01 µM
same,TGI,[43],15.4 µM
same,GI50,[44],7.36 µM
same,TGI,[44],14.8 µM
same,GI50,[45],6.56 µM
same,TGI,[45],13.5 µM
same,GI50,[46],7.76 µM
same,TGI,[46],15.7 µM
same,GI50,[47],10.2 µM
same,TGI,[47],20.2 µM
same,GI50,[48],6.95 µM
same,TGI,[48],14.1 µM
same,GI50,[49],9.15 µM
same,TGI,[49],17.9 µM
same,GI50,[50],8.78 µM
same,TGI,[50],16.7 µM
same,GI50,[51],9.23 µM
same,TGI,[51],16.8 µM
O=C(NCCN1CCOCC1)c1cc2c(Oc3ccc(NC(=O)C4(C(=O)Nc5ccc(F)cc5)CC4)cc3)ccnc2[nH]1,GI50,[1],13.7 µM
same,TGI,[1],> 100 µM
same,GI50,[2],15.3 µM
same,TGI,[2],> 100 µM
same,GI50,[4],5.19 µM
same,TGI,[4],> 100 µM
same,GI50,[52],4.14 µM
same,TGI,[52],> 52.8 µM
same,GI50,[5],7.84 µM
same,TGI,[5],> 100 µM
same,GI50,[6],1.82 µM
same,TGI,[6],16.5 µM
same,GI50,[53],4.43 µM
same,TGI,[53],46 µM
same,GI50,[7],22.9 µM
same,TGI,[7],> 100 µM
same,GI50,[8],2.05 µM
same,TGI,[8],39.6 µM
same,GI50,[9],1.39 µM
same,TGI,[9],16.5 µM
same,GI50,[10],9.94 µM
same,TGI,[10],> 100 µM
same,GI50,[11],12.5 µM
same,TGI,[11],> 100 µM
same,GI50,[12],15.2 µM
same,TGI,[12],47 µM
same,GI50,[13],6.4 µM
same,TGI,[13],> 100 µM
same,GI50,[14],15.3 µM
same,TGI,[14],51.9 µM
same,GI50,[15],3.73 µM
same,TGI,[15],50.3 µM
same,GI50,[16],6.74 µM
same,TGI,[16],45.6 µM
same,GI50,[17],14.2 µM
same,TGI,[17],> 100 µM
same,GI50,[18],3.22 µM
same,TGI,[18],31.5 µM
same,GI50,[19],3.48 µM
same,TGI,[19],> 100 µM
same,GI50,[20],3.03 µM
same,TGI,[20],12.4 µM
same,GI50,[54],0.833 µM
same,TGI,[54],11.8 µM
same,GI50,[21],4.26 µM
same,TGI,[21],22.7 µM
same,GI50,[22],5.13 µM
same,TGI,[22],> 100 µM
same,GI50,[23],10.3 µM
same,TGI,[23],> 100 µM
same,GI50,[55],4.27 µM
same,TGI,[55],42.2 µM
same,GI50,[24],8.78 µM
same,TGI,[24],> 100 µM
same,GI50,[56],3 µM
same,TGI,[56],18.7 µM
same,GI50,[25],0.47 µM
same,TGI,[25],15.5 µM
same,GI50,[26],7.85 µM
same,TGI,[26],> 54.8 µM
same,GI50,[27],10.6 µM
same,TGI,[27],> 100 µM
same,GI50,[28],9.45 µM
same,TGI,[28],42.2 µM
same,GI50,[29],2.36 µM
same,TGI,[29],33.2 µM
same,GI50,[30],4.36 µM
same,TGI,[30],> 100 µM
same,GI50,[57],4.37 µM
same,TGI,[57],19.4 µM
same,GI50,[31],1.15 µM
same,TGI,[31],> 32.9 µM
same,GI50,[32],1.59 µM
same,TGI,[32],> 75.1 µM
same,GI50,[33],5.77 µM
same,TGI,[33],64.6 µM
same,GI50,[34],4.9 µM
same,TGI,[34],48.6 µM
same,GI50,[35],19 µM
same,TGI,[35],> 85.7 µM
same,GI50,[36],1.32 µM
same,TGI,[36],> 71.1 µM
same,GI50,[37],11 µM
same,TGI,[37],> 100 µM
same,GI50,[38],7.69 µM
same,TGI,[38],28.1 µM
same,GI50,[39],7.56 µM
same,TGI,[39],41 µM
same,GI50,[40],3.22 µM
same,TGI,[40],23.3 µM
same,GI50,[41],9.19 µM
same,TGI,[41],22.9 µM
same,GI50,[42],2.32 µM
same,TGI,[42],> 100 µM
same,GI50,[43],7.87 µM
same,TGI,[43],34.5 µM
same,GI50,[44],15.1 µM
same,TGI,[44],> 100 µM
same,GI50,[45],0.893 µM
same,TGI,[45],9.64 µM
same,GI50,[46],1.1 µM
same,TGI,[46],14.4 µM
same,GI50,[47],8.4 µM
same,TGI,[47],30.7 µM
same,GI50,[48],1.84 µM
same,TGI,[48],19.8 µM
same,GI50,[49],1.44 µM
same,TGI,[49],> 100 µM
same,GI50,[58],4.48 µM
same,TGI,[58],> 48.7 µM
same,GI50,[50],0.412 µM
same,TGI,[50],> 40.9 µM
same,GI50,[51],5.14 µM
same,TGI,[51],19.5 µM
